The structures appear in SMILES notation.

T1 sequence (P41594 21-1212): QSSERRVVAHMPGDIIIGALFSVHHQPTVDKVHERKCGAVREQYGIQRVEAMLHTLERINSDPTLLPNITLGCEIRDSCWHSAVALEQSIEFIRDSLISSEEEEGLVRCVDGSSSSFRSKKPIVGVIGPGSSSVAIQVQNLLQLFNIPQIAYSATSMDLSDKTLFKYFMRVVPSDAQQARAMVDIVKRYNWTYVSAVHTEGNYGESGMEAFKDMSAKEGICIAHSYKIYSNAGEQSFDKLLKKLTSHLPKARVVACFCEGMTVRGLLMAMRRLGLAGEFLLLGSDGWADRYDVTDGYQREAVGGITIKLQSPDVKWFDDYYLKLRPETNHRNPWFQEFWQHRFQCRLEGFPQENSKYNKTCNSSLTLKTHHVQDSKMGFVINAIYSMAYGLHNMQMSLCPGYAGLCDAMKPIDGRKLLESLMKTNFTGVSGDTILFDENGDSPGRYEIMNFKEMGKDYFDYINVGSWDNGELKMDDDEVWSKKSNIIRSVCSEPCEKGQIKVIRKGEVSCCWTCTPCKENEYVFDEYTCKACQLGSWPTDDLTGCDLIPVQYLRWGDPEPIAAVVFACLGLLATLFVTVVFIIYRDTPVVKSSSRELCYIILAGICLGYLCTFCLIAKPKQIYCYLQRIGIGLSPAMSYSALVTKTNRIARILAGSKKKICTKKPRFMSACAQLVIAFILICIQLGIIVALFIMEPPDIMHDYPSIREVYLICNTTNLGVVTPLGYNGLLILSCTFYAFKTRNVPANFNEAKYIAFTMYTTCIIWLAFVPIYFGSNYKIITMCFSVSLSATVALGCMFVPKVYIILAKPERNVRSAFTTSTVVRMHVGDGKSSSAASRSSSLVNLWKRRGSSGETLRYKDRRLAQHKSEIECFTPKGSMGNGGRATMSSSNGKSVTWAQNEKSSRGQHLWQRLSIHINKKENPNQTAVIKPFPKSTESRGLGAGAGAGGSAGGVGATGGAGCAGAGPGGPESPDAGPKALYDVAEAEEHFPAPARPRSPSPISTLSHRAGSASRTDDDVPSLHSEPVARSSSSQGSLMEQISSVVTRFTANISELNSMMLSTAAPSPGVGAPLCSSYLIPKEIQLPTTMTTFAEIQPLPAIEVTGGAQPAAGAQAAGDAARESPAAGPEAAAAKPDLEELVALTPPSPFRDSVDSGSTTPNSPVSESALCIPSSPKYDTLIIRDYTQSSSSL

This assay addresses T1, human recombinant mGluR5 (Homo sapiens, UniProt P41594).
T1 construct: expressed in transfected cells; host or cells: HEK 293 cell line, cultured with tetracycline, hygromycin and geneticin; tetracycline is withdrawn 3-7 days before the assay
Kind of assay: positive modulation of mGluR5, calcium based FLIPR assay. It is filed as cell-based. The conditions noted are these: EC50 of the modulation; HEK 293 cell line expressing human recombinant mGluR5; peak height of Ca fluorescence signal after glutamate at approx. 5% basal stimulation; read-out: EC50. The procedure:
The positive modulation of mGluR5 is measured in a HEK 293 cell line expressing human recombinant mGluR5 and is detected with calcium based FLIPR assay. The cells are cultured with DMEM supplemented with 10% FCS, 2 μg/mL tetracycline, 100 μg/mL hygromycin and 500 μg/mL gneticin. The cell culture media is exchanged for tetracycline-free cell culture media 3-7 days before the assay. One day before the assay the cell culture medium is exchanged to DMEM without glutamine and phenol red and supplemented with 10% FCS, 100 μg/mL hygromycin and 500 μg/mL geneticin. On the assay day, the medium of the subconfluent cultures is removed and the cells are detached by addition of 2.5 ml EDTA (0.02%) per 175 cm2 culture flask for 1 minute. The cells are resuspend in Ringer solution (140 mM NaCl, 5 mM KCl, 2.5 mM CaCl2, 1.5 mM MgCl2, 5 mM Glucose, 10 mM Hepes; adjusted to pH 7.4 with NaOH), pooled and Ringer solution added to adjust the volume to 50 mL. The cell suspension is centrifuged for 5 min at 1500 U/min (425 g). The supernatant is removed and the cells washed a second time with 50 ml fresh Ringer solution and centrifuged again as before. The supernatant is again removed and the pellet resuspended in Ringer solution to 1,000,000 cells/ml (1×10^6 cells/mL). The cells are plated onto BD BioCoat Poly-D-Lysine 384 well plates (20.000 cells/well; 20 μl/well). The lid covered plates are then incubated until use at 37° C./10% CO2. For dye loading, 20 μl of Calcium-4 assay kit solution (prepared according to the manufacturer's description in Ringer solution) are added to the cells and the plates are incubated for 80 min 37° C. and then 10 min at room temperature. • Controls, Compound dilution and assay execution: • Each assay plate contained wells with “high” and “low” controls:
Low controls 1% DMSO/ringer solution+basal glutamate activation (defined as 100% CTL).
High controls 10 μM CDPPB+basal glutamate activation (defined as 200% CTL).
Test compounds are dissolved and diluted in DMSO to 100-fold the desired concentrations. In a second step, the compounds are diluted in Ringer solution such that the compounds are 4-fold more concentrated than the desired final assay concentration. The final DMSO concentration was 1%.
20 μl of each compound solution are then transferred to the assay plate and the Ca2+ kinetic is measured to determine any intrinsic compound activity. After 5 min incubation in the FLIPR device, the second stimulation with 20 μl of glutamate in Ringer solution (glutamate concentration adjusted to approximately 5% basal stimulation of the maximal possible glutamate effect) is added and the kinetic Ca2+ response of the wells was measured for the modulation effect.
The peak height of the Ca release related fluorescence signal (9-66) is used for the EC50. The EC50 of the modulation is calculated over a nonlinear regression with GraphPad Prism (Table 1).
In the case of `O=C(Cn1nc(-c2ccc(F)cc2)nc1-c1ccc(F)cc1)N1CCC(Oc2ccccn2)CC1` [Example 7.03.009.], the 50% effective concentration (EC50) stood at 808 nM.

As for `O=C(Cn1nc(-c2ccc(F)cc2)nc1-c1ccc(F)cc1)N1CCN(c2ccccc2)C(=O)C1` [Example 7.03.010.], the EC50 was found to be 734 nM.

Turning to `O=C(Cn1nc(-c2ccc(F)cc2)nc1-c1ccc(F)cc1)N1CCc2ncsc2CC1` [Example 7.03.011.], the concentration giving a half-maximal response (EC50) was 453 nM.

With `O=C(Cn1nc(-c2ccc(F)cc2)nc1-c1ccc(F)cc1)N1CCC(c2ncccn2)CC1` [Example 7.03.012.], the EC50 was 1470 nM.

Turning to `Nc1nc2c(s1)CCN(C(=O)Cn1nc(-c3ccc(F)cc3)nc1-c1ccc(F)cc1)CC2` [Example 7.03.013.], the 50% effective concentration (EC50) amounted to 141 nM.

Take `CC1CN(c2ccccn2)CCN1C(=O)Cn1nc(-c2ccc(F)cc2)nc1-c1ccc(F)cc1` (centres unmarked) [Example 7.03.014.]: the concentration for a half-maximal effect (EC50) is 626 nM.

In the case of `N#Cc1cccc(N2CCN(C(=O)Cn3nc(-c4ccc(F)cc4)nc3-c3ccc(F)cc3)CC2=O)c1` [Example 7.03.015.], the concentration giving a half-maximal response (EC50) turned out to be 305 nM.

For `O=C(Cn1nc(-c2ccc(F)cc2)nc1-c1ccc(F)cc1)N1CCN(c2cc(F)ccn2)C(=O)C1` [Example 7.03.016.], the EC50 came to 101 nM.

Consider `Nc1nc2c(o1)CCN(C(=O)Cn1nc(-c3ccc(F)cc3)nc1-c1ccc(F)cc1)CC2` [Example 7.03.019.], for which the EC50 was 439 nM.

With `O=C(Cn1nc(-c2ccc(F)cc2)nc1-c1ccc(F)cc1)N1Cc2cccnc2C1` [Example 7.03.020.], the concentration giving a half-maximal response (EC50) is 626 nM.

Regarding `COc1cccc(C2=CCN(C(=O)Cn3nc(-c4ccc(F)cc4)nc3-c3ccc(F)cc3)CC2)c1` [Example 7.03.021.], the 50% effective concentration (EC50) stood at 228 nM.

With `O=C(Cn1nc(-c2ccc(F)cc2)nc1-c1ccc(F)cc1)N1CC=C(c2ncccn2)CC1` [Example 7.03.022.], the EC50 was 56 nM.

Consider `COc1ccc2c(n1)CCN(C(=O)Cn1nc(-c3ccc(F)cc3)nc1-c1ccc(F)cc1)CC2` [Example 7.03.023.], for which the EC50 was determined as 186 nM.

In the case of `O=C(Cn1nc(-c2ccc(F)cc2)nc1-c1ccc(F)cc1)N1CC=C(c2ccccn2)CC1` [Example 7.03.024.], the EC50 came out at 107 nM.

Take `COc1cc(C2=CCN(C(=O)Cn3nc(-c4ccc(F)cc4)nc3-c3ccc(F)cc3)CC2)ncn1` [Example 7.03.025.]: the half-maximal effective concentration (EC50) came to 97 nM.

`COc1cc(C2CCN(C(=O)Cn3nc(-c4ccc(F)cc4)nc3-c3ccc(F)cc3)CC2)ncn1` [Example 7.03.026.]: the EC50 turned out to be 987 nM.

On to `O=C(Cn1nc(-c2ccc(F)cc2)nc1-c1ccc(F)cc1)N1CCC(c2ccccn2)CC1` [Example 7.03.027.], for which the EC50 was found to be 739 nM.

Regarding `O=C(Cn1nc(-c2ccc(F)cc2)nc1-c1ccc(F)cc1)N1CCc2ccc(Cl)nc2CC1` [Example 7.03.028.], the 50% effective concentration (EC50) worked out at 117 nM.

Regarding `CCc1nc2c(s1)CCN(C(=O)Cn1nc(-c3ccc(F)cc3)nc1-c1ccc(F)cc1)CC2` [Example 7.03.030.], the half-maximal effective concentration (EC50) is 37 nM.

Consider `O=C(Cn1nc(-c2ccc(F)cc2)nc1-c1ccc(F)cc1)N1CCc2nc(C3CCOCC3)sc2CC1` [Example 7.03.031.], for which the EC50 was determined as 1780 nM.

For `O=C(Cn1nc(-c2ccc(F)cc2)nc1-c1ccc(F)cc1)N1CCc2nc(C3CCCCC3)sc2CC1` [Example 7.03.032.], the EC50 is 868 nM.

As to `CC(C)c1nnc(C2CCN(C(=O)Cn3nc(-c4ccc(F)cc4)nc3-c3ccc(F)cc3)CC2)o1` [Example 7.03.033.], the 50% effective concentration (EC50) came to 474 nM.

`O=C(Cn1nc(-c2ccc(F)cc2)nc1-c1ccc(F)cc1)N1CCC(c2nnco2)CC1` [Example 7.03.034.]: the EC50 was 907 nM.

Regarding `Cc1cnc(C2CCN(C(=O)Cn3nc(-c4ccc(F)cc4)nc3-c3ccc(F)cc3)CC2)o1` [Example 7.03.035.], the concentration giving a half-maximal response (EC50) came to 170 nM.

In the case of `Cc1cnc(C2=CCN(C(=O)Cn3nc(-c4ccc(F)cc4)nc3-c3ccc(F)cc3)CC2)o1` [Example 7.03.036.], the half-maximal effective concentration (EC50) was found to be 49 nM.

Turning to `Cc1nc2c(s1)C(C)CN(C(=O)Cn1nc(-c3ccc(F)cc3)nc1-c1ccc(F)cc1)CC2` (centres unmarked) [Example 7.03.037.], the EC50 was 312 nM.

For the compound `O=C(Cn1nc(-c2ccc(F)cc2)nc1-c1ccc(F)cc1)N1CCC(c2ncco2)CC1` [Example 7.03.038.], the half-maximal effective concentration (EC50) amounted to 75 nM.

On to `COc1nc2c(s1)CCN(C(=O)Cn1nc(-c3ccc(F)cc3)nc1-c1ccc(F)cc1)CC2` [Example 7.03.039.], for which the EC50 turned out to be 50 nM.

Take `O=C(Cn1nc(-c2ccc(F)cc2)nc1-c1ccc(F)cc1)N1CC=C(c2ncco2)CC1` [Example 7.03.040.]: the half-maximal effective concentration (EC50) amounted to 54 nM.

With `COc1cccc(N2CCN(C(=O)Cn3nc(-c4ccc(F)cc4)nc3-c3ccc(F)cc3)CC2=O)n1` [Example 7.03.041.], the half-maximal effective concentration (EC50) was 161 nM.

`O=C(Cn1nc(-c2ccc(F)cc2)nc1-c1ccc(F)cc1)N1CCN(C2=NCCO2)CC1` [Example 7.03.042.]: the half-maximal effective concentration (EC50) came to 885 nM.

Regarding `CC(C)c1nnc(N2CCN(C(=O)Cn3nc(-c4ccc(F)cc4)nc3-c3ccc(F)cc3)CC2)o1` [Example 7.03.043.], the half-maximal effective concentration (EC50) amounted to 139 nM.

`CCc1nnc(N2CCN(C(=O)Cn3nc(-c4ccc(F)cc4)nc3-c3ccc(F)cc3)CC2)o1` [Example 7.03.044.]: the EC50 is 96 nM.

Turning to `Cc1nnc(N2CCN(C(=O)Cn3nc(-c4ccc(F)cc4)nc3-c3ccc(F)cc3)CC2)o1` [Example 7.03.045.], the EC50 was found to be 155 nM.

Regarding `O=C(Cn1nc(-c2ccc(F)cc2)nc1-c1ccc(F)cc1)N1CCN(C2=NCCS2)CC1` [Example 7.03.046.], the EC50 turned out to be 356 nM.

Take `O=C(Cn1nc(-c2ccc(F)cc2)nc1-c1ccc(F)cc1)N1CCN(c2nc3ccccc3o2)CC1` [Example 7.03.047.]: the half-maximal effective concentration (EC50) was 140 nM.

As to `O=C(Cn1nc(-c2ccc(F)cc2)nc1-c1ccc(F)cc1)N1CCN(c2nccs2)CC1` [Example 7.03.048.], the half-maximal effective concentration (EC50) is 88 nM.

`Nc1nc2c(s1)CCN(C(=O)Cn1nc(-c3ccccc3)nc1-c1ccccc1)CC2` [Example 7.03.049.]: the EC50 was 1440 nM.

`COc1ccc(-c2nc(-c3ccccc3)n(CC(=O)N3Cc4nc(C)sc4C3)n2)cc1` [Example 7.03.050.]: the concentration for a half-maximal effect (EC50) was determined as 338 nM.

In the case of `COc1ccc(-c2nc(-c3ccccc3)n(CC(=O)N3CCc4nc(N)sc4CC3)n2)cc1` [Example 7.03.051.], the half-maximal effective concentration (EC50) was determined as 282 nM.

Regarding `COc1ccc(-c2nc(-c3ccccc3)n(CC(=O)N3CCc4nc(C)oc4C3)n2)cc1` [Example 7.03.052.], the EC50 turned out to be 323 nM.

As for `COc1ccc(-c2nc(-c3ccccc3)n(CC(=O)N3CCN(c4ccccn4)C(=O)C3)n2)cc1` [Example 7.03.053.], the EC50 came to 242 nM.

Consider `COc1ccc(-c2nc(-c3ccccc3)n(CC(=O)N3CCc4nc(C)sc4CC3)n2)cc1` [Example 7.03.054.], for which the EC50 was determined as 97 nM.

`COc1ccc(-c2nc(-c3ccc(F)cc3)n(CC(=O)N3CCc4nc(N)sc4CC3)n2)cc1` [Example 7.03.055.]: the EC50 was 100 nM.

As for `COc1ccc(-c2nc(-c3ccc(F)cc3)n(CC(=O)N3CCc4nc(C)sc4CC3)n2)cc1` [Example 7.03.056.], the EC50 was 63 nM.

On to `COc1ccc(-c2nc(-c3ccc(F)cc3)nn2CC(=O)N2CCc3nc(N)sc3CC2)cc1` [Example 7.03.057.], for which the EC50 came out at 187 nM.

Take `COc1ccc(-c2nc(-c3ccc(F)cc3)nn2CC(=O)N2CCc3nc(C)sc3CC2)cc1` [Example 7.03.058.]: the EC50 is 117 nM.

These data come from patent US8642774B2, “Compounds” (Boehringer Ingelheim International GmbH, priority 2011, dated 2014).
